Reference: patent US7482415B2, “Process for producing fluoroionomer, method for purification and concentration of the ionomer, and method of film formation” (Daikin Industries, Ltd., priority 2000, dated 2009)

How the values were obtained:
Format in all cases: physicochemical
[1] = Dissolution test (Solvent D): dissolving power of acids for S monomer, visually evaluated; design: key: A: Completely dissolved; B: Partially dissolved or swelled; C: Not dissolved; settings: small amount of S monomer
Protocol: (§1) Each solvent shown in the following table (50 cc) was placed in an individual test tube, and a small amount of S monomer was added to test the dissolving power.
The dissolving power was visually evaluated on the following scale of three. […] A: Completely dissolved; B: Partially dissolved or swelled; C: Not dissolved

[2] = Solubility test of S monomer in solvents
[3] = Dissolution test (Solvent A): dissolving power of solvents for S monomer, visually evaluated; design: key: A: Completely dissolved; B: Partially dissolved or swelled; C: Not dissolved; settings: small amount of S monomer
Protocol: as §1
The dissolving power was visually evaluated on the following scale of three. […] A: Completely dissolved; B: Partially dissolved or swelled; C: Not dissolved.

O=S(=O)([O-])C(F)(F)C(F)(F)OC(F)=C(F)F.[Na+] [S monomer, CF2═CFOCF2CF2SO3Na]
A: Dissolving power ([1]; acid Acetic acid (50 cc)) | Dissolving power ([1]; acid CF2═CFCF2COOH (50 cc)) | Dissolving power ([1]; acid Hexafluoroisopropanol (50 cc)) | Dissolving power ([1]; acid Hydrofluoric acid (50 cc)) | Dissolving power ([1]; acid Trifluoroacetic acid (50 cc)) | Dissolving power ([3]; solvent Acetic acid (50 cc)) | Dissolving power ([3]; solvent Acetone (50 cc)) | Dissolving power ([3]; solvent Acetonitrile (50 cc)) | Dissolving power ([3]; solvent Dimethylformamide (50 cc)) | Dissolving power ([3]; solvent Ethanol (50 cc)) | Dissolving power ([3]; solvent Ethyl acetate (50 cc)) | Dissolving power ([3]; solvent Isopropanol (50 cc)) | Dissolving power ([3]; solvent Methanol (50 cc)) | Dissolving power ([3]; solvent Pyridine (50 cc)) | Dissolving power ([3]; solvent Tetrahydrofuran (50 cc)) | Dissolving power ([3]; solvent Trifluoroacetic acid (50 cc))
C: Dissolving power ([3]; solvent Benzene (50 cc)) | Dissolving power ([3]; solvent Carbon disulfide (50 cc)) | Dissolving power ([3]; solvent Chloroform (50 cc)) | Dissolving power ([3]; solvent Diethyl ether (50 cc)) | Dissolving power ([3]; solvent Diphenyl ether (50 cc)) | Dissolving power ([3]; solvent Hexane (50 cc))
530 mM: Solubility ([2]; in t-Butanol)
30 mM: Solubility ([2]; in Hexafluoroisopropanol)
770 mM: Solubility ([2]; in sec-Butanol)
2700 mM: Solubility ([2]; in Dimethoxyethane)
700 mM: Solubility ([2]; in Trifluoroacetic acid)
